In patent publication US20260306502A1, “MITOCHONDRIAL UNCOUPLERS FOR TREATMENT OF METABOLIC DISEASES AND CANCER” (Mito Biopharma, LLC, priority 2022, published 2026):

What follows are compounds tested on C2C12 cells (assay: Mitochondrial uncoupling activity by oxygen consumption rate (OCR) assay, Seahorse, in presence of oligomycin). Details: Mus musculus, C2C12; in the presence of oligomycin 2.5 μM; read-out: COCR-min: minimal concentration increasing OCR in the presence of oligomycin.
Assay type: cell-based, mouse
Experimental: By definition, mitochondrial uncoupling is the decoupling of mitochondrial electron transport chain activity (mitochondrial oxidation) from ATP synthesis by mitochondrial ATP synthase. Technically, mitochondrial uncoupling activity is defined by the ability of a chemical compound to induce oxygen consumption of cells or isolated mitochondria in the presence of a mitochondrial ATP synthase inhibitor such as oligomycin. Accordingly, mitochondrial uncoupling activity was determined by oxygen consumption rate assay with a Seahorse XF96 or a Seahorse XF24 instrument following the vendor's instruction, using mouse myoblast C2C12 cells grown in a medium containing 10% fetal bovine serum. OCR was measured stepwise under the following conditions: first under normal growth conditions; then. OCR was measured after oligomycin was added to reach a final concentration of 2.5 μM); then OCR was measured after the compound was further added at varying concentrations. Finally, rotenone and antimycin A were added to confirm that the measurement was mitochondrial oxygen consumption (rotenone and […] mitochondrial electron transport chain inhibitors).
COCR-min the minimal concentration required for each compound to induce OCR in the presence of oligomycin, of disclosed compounds, was also determined by varying the final concentration of the compound added to the Seahorse OCR analysis experiment as described above (FIG. 2, varying testing compound concentration). Table 8 summarizes the mitochondrial uncoupling activity of disclosed compounds, as represented by COCR-min.

SMILES | minimal effective concentration
COCCOCc1cc(I)cc(C(=O)Nc2nc3ccc(C(F)(F)F)cc3s2)c1O [Compound 46, 2-hydroxy-5-iodo-3-((2-methoxyethoxy)methyl)-N-(6-(trifluoromethyl)benzo[d]thiazol-2-yl)benzamide] | < 5 µM
N#CC1CCN(Cc2cc(Cl)cc(C(=O)Nc3ccc(C(F)(F)F)nc3)c2O)C1 (stereo not drawn) [Compound 55, 5-chloro-3-((3-cyanopyrrolidin-1-yl)methyl)-2-hydroxy-N-(6-(trifluoromethyl)pyridin-3-yl)benzamide] | < 5 µM
C[C@@H]1CN(Cc2cc(Cl)cc(C(=O)Nc3nc4c(CNS(C)(=O)=O)cc(C(F)(F)F)cc4s3)c2O)C[C@H](C)O1 [Example 72, 5-chloro-3-((cis-2,6-dimethylmorpholino)methyl)-2-hydroxy-N-(4-(methylsulfonamidomethyl)-6-(trifluoromethyl)benzo[d]thiazol-2-yl)benzamide] | < 5 µM
COCCOCc1cc(Cl)cc(C(=O)Nc2nc3ccc(F)cc3s2)c1O [Compound 8, 5-chloro-N-(6-fluorobenzo[d]thiazol-2-yl)-2-hydroxy-3-((2-methoxyethoxy)methyl)benzamide] | < 5 µM
COc1ccc(COCc2cc(C(F)(F)F)cc3sc(NC(=O)c4cc(Cl)cc(C)c4O)nc23)cc1 [Compound 89, 5-chloro-2-hydroxy-N-(4-(((4-methoxybenzyl)oxy)methyl)-6-(trifluoromethyl)benzo[d]thiazol-2-yl)-3-methylbenzamide] | < 5 µM
C[C@@H]1CN(Cc2cc(Cl)cc(C(=O)Nc3nc4c(CN5CCN(C)CC5)cc(C(F)(F)F)cc4s3)c2O)C[C@H](C)O1 [Example 79, 5-chloro-3-((cis-2,6-dimethylmorpholino)methyl)-2-hydroxy-N-(4-((4-methylpiperazin-1-yl)methyl)-6-(trifluoromethyl)benzo[d]thiazol-2-yl)benzamide] | < 5 µM
COCCN(CCOC)Cc1cc(Cl)cc(C(=O)Nc2nc3c(CNS(C)(=O)=O)cc(C(F)(F)F)cc3s2)c1O [Example 74, 3-((bis(2-methoxyethyl)amino)methyl)-5-chloro-2-hydroxy-N-(4-(methylsulfonamidomethyl)-6-(trifluoromethyl)benzo[d]thiazol-2-yl)benzamide] | < 5 µM
Cc1cc(Cl)cc(C(=O)Nc2nc3c(COCCO)cc(C(F)(F)F)cc3s2)c1O [Compound 88, 5-chloro-2-hydroxy-N-(4-((2-hydroxyethoxy)methyl)-6-(trifluoromethyl)benzo[d]thiazol-2-yl)-3-methylbenzamide] | 5 to 10 µM
COCCNCc1cc(Cl)cc(C(=O)Nc2nc3ccc(C(F)(F)F)cc3s2)c1O [Compound 22, 5-chloro-2-hydroxy-3-(((2-methoxyethyl)amino)methyl)-N-(6-(trifluoromethyl)benzo[d]thiazol-2-yl)benzamide] | < 5 µM
COCCOCc1cc(Cl)cc(C(=O)Nc2nc3ccc(C(F)F)cc3s2)c1O [Compound 42, 5-chloro-N-(6-(difluoromethyl)benzo[d]thiazol-2-yl)-2-hydroxy-3-((2-methoxyethoxy)methyl)benzamide] | 5 to 10 µM
CC(=O)NC1CCN(Cc2cc(Cl)cc(C(=O)Nc3nc4ccc(C(F)(F)F)cc4s3)c2O)C1 (stereo not drawn) [Compound 33, 3-((3-acetamidopyrrolidin-1-yl)methyl)-5-chloro-2-hydroxy-N-(6-(trifluoromethyl)benzo[d]thiazol-2-yl)benzamide] | > 10 µM
O=C(Nc1nc2ccc(C(F)(F)F)cc2s1)c1cc(Cl)cc(CN2CCCC(C(F)(F)F)C2)c1O (stereo not drawn) [Example 61, 5-chloro-2-hydroxy-N-(6-(trifluoromethyl)benzo[d]thiazol-2-yl)-3-((3-(trifluoromethyl)piperidin-1-yl)methyl)benzamide] | < 5 µM
